Patent publication EP0151577B1 (priority 1983, dated 1984)

Legend:
souris [1] = assay: General pharmacological profile: hypersensitivity to noise; conditions: 100 mg/kg i.p., 15 min after administration, Tableau 3
Protocol: (§3) Les mesures ont été faites a 15, 30 et 60 minutes après I'administration par voie intrapéritonéale (i.p.) a des souris.

[2] = Acute toxicity, DL50 i.p.; format: in vivo, souris; conditions: mouse, in vivo, ip, read-out: DL50 (ip)en toxicité aigue
Protocol: La valeur DL50 i.p. pour tous ces derives a été trouvée voisine de 800 mg/kg et la valeur DL 50 i.v. est supérieure a 5 g/kg.

souris [3] = assay: Anticonvulsant activity, MES; format: in vivo
Text: Activite anticonvulsivante (MES): % de protection Temps de sommeil au pentobarbital: WYATT, R.J., ZARKONE, V. […], K., DEMENT, W.C., SMYDER, F. and SJOERDSMA, A., Effects of 5-Hydroxytryptophan on the sleep of normal human subjects. Electroencephaly and Clinical Neurophysiology 30, 5051971.

souris [4] = assay: Tremor score in mice pretreated with a MAO inhibitor (Harmaline); format: in vivo; conditions: 75 mg/kg S.C., 1 h after Harmaline 25 mg/kg P.O., 5 souris, scored 5 to 75 min
Protocol: Les conditions expérimentales étaient les suivantes:
Chez des souris prétraitées par un inhibiteur de la MAO (Harmaline 25 mg/kg/ P.O.), I'injection de 5HTP (1 heure après l'IMAO) entraîne l'apparition de tremblements plus ou moins généralisés, accompagnés ou non d'hyperactivité motrice et qui sont dus a I'accumulation de sérotonine non dégradée au niveau des récepteurs post-synaptiques cérébraux. On peut établir pour chaque souris une cotation chiffrée suivant l'intensité des symptômes observes au cours du temps (cotation toutes les 5 min. entre la 5ème et la 45ème min. après I'injection de 5 HTP puis toutes les 15 min. jusqu'à la 75ème min.).
On additionne en une score total tous les chiffres obtenus aux différents temps sur des lots de 5 ou 10 souris.
Les actions du 5 HTP ont été comparées a celles du DF-5HTP.

souris [5] = assay: General pharmacological profile: respiratory rate; format: in vivo; conditions: for Cadence respira-toire: souris
Text: (§1) Activite motrice spontanée: MODIGH, K., Central and peripheral effects of 5-hydroxytryptophan on motor activity in mice. Psychopharmacologia (Berlin), 23, 48, 1972. Cadence respiratoire: […], S., and VALZELLI, L. Serotonin and cardiovascular system, Chapter 9, in "Serotonin", Elsevier Publ. Co. Amsterdam 1965.
COHEN, Y. and BLANCHARD, P. Influence de la chelation du calcium sur les effets tensionnels de la sérotonine chez le chien. J. Physiol., 52, 569,1960.
BRAUNWALD, E. Control of myocardial oxygen consumption: Physiologic and clinical considerations. Am. J. Cardiol., 27 (4), 416,1971.

souris [6] = assay: General pharmacological profile: defecation; conditions: 100 mg/kg i.p., 15 min after administration, Tableau 3
Protocol: as §3

souris [7] = assay: Inclined screen test (neurotoxicity); conditions: 100 mg/kg i.p., 15 min after administration, Tableau 3
Protocol: as §3

souris [8] = assay: Anticonvulsant activity, pentylenetetrazol; format: in vivo; conditions: 100 mg/kg i.p., 15 min after administration
Tension sanguine = assay: Cardiovascular activity: blood pressure; format: in vivo
Text: (§2) Le protocole experimental était celui décrit dans "Sugar Derivatives of Indolamines. part V: Cardiovascular Effects and "Anti-stress" Activity of Desoxyfructose Derivative of Serotonin and 5-Metho-xy- tryptamin", L. Mester, M. Mester, K.P. Bhargava, C. Labrid, G. Dureng and M. Cheucle, THROMBOSIS […], 15,245,1979.

souris [9] = assay: Vertical pole climbing test; format: in vivo; conditions: 100 mg/kg i.p., 15 min after administration
souris [10] = assay: Pentobarbital sleeping time; format: in vivo
Protocol: as §3

[11] = tested on: réponse à l'obstruction de la carotide; assay: Cardiovascular activity: response to carotid occlusion (CO); format: in vivo
Text: as §2

Rythme cardiaque = assay: Cardiovascular activity: heart rate; format: in vivo
Text: as §2

souris [12] = assay: Anti-stress activity: swimming endurance; format: in vivo; conditions: 100 mg/kg i.p., souris observed up to 540 min; témoins 385 ± 31 min
Protocol: Au tableau 4, la lettre N designe le nombre d'animaux (souris). Un astérisque indique une activite importante. Deux astérisques indiquent une possibilité d'activité positive. Dans I'essai d'endurance a la nage, on a observe les souris jusqu'à 540 minutes, la durée moyenne de nage pour les souris témoins étant de 385 ± 31 minutes.
(N) - représente le nombre d'animaux * - activité importante ** - activite positive possible Pour I'endurance a la nage, les souris ont été observées jusqu'à 540 min, la durée moyenne de nage chez les souris témoins était de 385 + 31 min. *** - La leucocytose a été induite par 0,1 ml de lait (sous-cutanée) avant traitement avec le medicament.

souris [13] = assay: Morphine test (antagonism); format: in vivo; conditions: 100 mg/kg i.p., 15 min after administration
souris [14] = assay: Catatonia; conditions: 100 mg/kg i.p., 15 min after administration
souris [15] = assay: General pharmacological profile: spontaneous motor activity; format: in vivo
Text: as §1

souris [16] = assay: Rotarod test; conditions: 100 mg/kg i.p.; témoin 11,3 ± 3,1
Protocol: as §3

[17] = In vivo metabolism of radioactive compounds, hamster plasma; conditions: au bout de 4 heures, figure 2
Text: La mesure de la radioactivite des diverses fractions isolées du sang des hamsters traités permet de caractériser les metabolites, lesquels sont ainsi isolés et identifies par électrophorèse. Les metabolites acides HIAA et IAA sont séparés ensemble.
On a porté le temps en abscisses (exprimé en heures) et en ordonnées le pourcentage du compose caractérisé dans le plasma.

[18] = tested on: cellules des neuroblastomes; assay: Inhibition of serotonin incorporation into neuroblastoma cells in vitro; format: cell-based
M. Leprae = assay: Incorporation of 3H-DOPA by M. leprae in vitro; format: cell-based, Mycobacterium leprae; conditions: 6 h
Text: Le tableau 6 rassemble des résultats d'essai concernant l'activité du DF-5HTP sur l'incorporation de la DOPA dans les Mycobacteries de la lèpre. Le protocole experimental était celui décrit dans JAYARAMAN, P., […], P.R., MESTER, M. and MESTER, L. Inhibition of the incorporation of ^3H-DOPA in Mycobacterium leprae by Desoxyfructo-serotonin. Biochem. Pharm., 29, 2526,1980.
On a inoculé 5 x 10^6 M. leprae par tube; le milieu était un tampon phosphate à pH 6,8. La quantité de 3H-DOPA était de 1 µ. Ci/tube.
Protocole: Chaque tube de 0,5 ml est inocule de 5 x 10^6 M. leprae et de 1 µ Ci de ^3H-DOPA. Après 6 heures, I'incorporation de la DOPA radioactive est enregistrée en DPM selon la technique utilisée dans JAYARAMAN, P., […], P.R., MESTER, M. and MESTER, L. Inhibition of the Incorporation of ^3H-DOPA in Mycobacterium leprae by Desoxyfructo-serotonin. Biochem. Pharm., 29,2526,1980.

[19] = 100 mg/kg (ip), 15 min, Tableau 2
[20] = 100 mg/kg i.p., 15 min after administration, Tableau 3
[21] = 10 mg par voie cérébroventriculaire

N[C@@H](Cc1c[nH]c2ccc(O)cc12)C(=O)O [5-HTP, 5-hydroxytryptophane, reference compound]
Hypersensibilité au bruit (souris [1]): oui | LD50 [2]: > 800 mg/kg | Activité anticon-vulsivante MES % protection (souris [3]; 50 mg/kg (ip), 15 min): 20% | Activité anticon-vulsivante MES % protection (souris [3]; 50 mg/kg (ip), 30 min): 25% | Activité anticon-vulsivante MES % protection (souris [3]; 50 mg/kg (ip), 60 min): 25% | Activité anticon-vulsivante MES % protection (souris [3]; [19]): 50% | Activité anticon-vulsivante MES % protection (souris [3]; 100 mg/kg (ip), 30 min): 33,3% | Activité anticonvulsivante 1. MES (souris [3]; [20]): 60% | Score total (tremblements) (souris [4]): 146 | Cadence respira-toire (souris [5]; 50 mg/kg (ip)): sans effet | Cadence respira-toire (souris [5]; 100 mg/kg (ip), Tableau 2): augmentation | Cadence respiratoire (souris [5]; [20]): Légère augmentation | Défécation (souris [6]): oui | Tamis incliné (souris [7]): Pas d'effet neurotoxique | Activité anticonvulsivante 2.Pentylènetetrazol (souris [8]): 0% | Tension sanguine Durée (Tension sanguine; [21]): 240 min | Tension sanguine Mesure à (Tension sanguine; [21]): 1 min | Tension sanguine Pic (Tension sanguine; [21]): 15 min | Tension sanguine Durée (Tension sanguine; 100 mg par voie intraveineuse): 60 min | Tension sanguine Mesure à (Tension sanguine; 100 mg par voie intraveineuse): 1 min | Tension sanguine Pic (Tension sanguine; 100 mg par voie intraveineuse): 10 min | Essai de grimpé sur un baton vertical (souris [9]): Sans effet | Temps de sommeil au pentobarbital % du témoin (témoin =100) (souris [10]; 50 mg/kg (ip), 15 min): 285 % du témoin | Temps de sommeil au pentobarbital % du témoin (témoin =100) (souris [10]; 50 mg/kg (ip), 30 min): 222 % du témoin | Temps de sommeil au pentobarbital % du témoin (témoin =100) (souris [10]; 50 mg/kg (ip), 60 min): 136 % du témoin | Temps de sommeil au pentobarbital % du témoin (témoin =100) (souris [10]; [19]): 295 % du témoin | Temps de sommeil au pentobarbital % du témoin (témoin =100) (souris [10]; 100 mg/kg (ip), 30 min): 276 % du témoin | Temps de sommeil au pentobarbital % du témoin (témoin =100) (souris [10]; 100 mg/kg (ip), 60 min): 279 % du témoin | REPONSE CO Durée [11, 21]: 105 min | REPONSE CO Mesure à [11, 21]: 1 min | REPONSE CO Pic [11, 21]: 10 min | REPONSE CO Durée ([11]; 100 mg par voie intraveineuse): 45 min | REPONSE CO Mesure à ([11]; 100 mg par voie intraveineuse): 5 min | REPONSE CO Pic ([11]; 100 mg par voie intraveineuse): 15 min | Rythme cardiaque Durée (min) (Rythme cardiaque; [21]): non mani-fes-tae jus-qu'à 240 | Rythme cardiaque Mesure à (Rythme cardiaque; [21]): 5 min | Rythme cardiaque Pic (Rythme cardiaque; [21]): 30 min | Rythme cardiaque Durée (Rythme cardiaque; 100 mg par voie intraveineuse): 60 min | Rythme cardiaque Mesure à (Rythme cardiaque; 100 mg par voie intraveineuse): 1 min | Rythme cardiaque Pic (Rythme cardiaque; 100 mg par voie intraveineuse): 30 min | Endurance à la nage % d'augmentation (souris [12]): 40^** % | Essai à la morphine (souris [13]): Négatif (pas d'antagonisme) | Catatonie (souris [14]): non | Activité motrice spontanée (souris [15]; 50 mg/kg (ip), souris): sans effet | Activité motrice spontanée (souris [15]; 100 mg/kg (ip), souris, Tableau 2): d'abord légère augmentation et ensuite dimi-nution légère | Activité motrice spontanée (souris [15]; [20]): Légère augmentation | Performance à l'essai Rotarod Moyenne (Sec) (souris [16]): 66,2 ± 6,4 (30) Sec

désoxyfructo-sérotonine [DF-5HT, reference compound]
niveau du compose non transformé dans le plasma [17]: insignifiante | % Inhibition à 0°C de l'incorporation de la sérotonine dans les cellules nerveuses ([18]; 0°C): 95% | % Inhibition à 25°C de l'incorporation de la sérotonine dans les cellules nerveuses ([18]; 10-^4 Mol, 25°C): 90% | incorporation de 3H-DOPA par M. Leprae (M. Leprae; 1 µg/ml, Armadillo M.Leprae N°2275/5, témoins 5977): 2431 DPM | incorporation de 3H-DOPA par M. Leprae (M. Leprae; 1 µg/ml, Armadillo M.Leprae N°2275/5 Tués par la chaleur, témoins 915): 410 DPM | incorporation de 3H-DOPA par M. Leprae (M. Leprae; 1 µg/ml, Armadillo M.Leprae N°2457/103, témoins 4215): 2575 DPM | incorporation de 3H-DOPA par M. Leprae (M. Leprae; 1 µg/ml, Armadillo M.Leprae N°2457/103 Tués par la chaleur, témoins 2855): 2110 DPM | incorporation de 3H-DOPA par M. Leprae (M. Leprae; 5 µg/ml, Armadillo M.Leprae N°2275/5, témoins 5977): 2264 DPM | incorporation de 3H-DOPA par M. Leprae (M. Leprae; 5 µg/ml, Armadillo M.Leprae N°2275/5 Tués par la chaleur, témoins 915): 566 DPM | incorporation de 3H-DOPA par M. Leprae (M. Leprae; 5 µg/ml, Armadillo M.Leprae N°2457/103, témoins 4215): 1485 DPM | incorporation de 3H-DOPA par M. Leprae (M. Leprae; 5 µg/ml, Armadillo M.Leprae N°2457/103 Tués par la chaleur, témoins 2855): 1640 DPM
